The record followed here is patent publication US20220402950A1, “SUBSTITUTED BENZIMIDAZOLES AS PAD4 INHIBITORS” (BRISTOL-MYERS SQUIBB COMPANY, priority 2018, published 2022).

pIC50: −log10 of the molar value. Read-outs that look alike come from different tables or passages of the source.

In this experiment the target is human PAD4 (hPAD4) (Homo sapiens, UniProt Q9UM07). The experiment in a line: RFMS Human PAD4 Functional Assay. It is filed as biochemical. The settings on record: 5 nM hPAD4, 250 μM BAEE. In a few lines:
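RapidFire ESI-MS quantification, normalised to a modified-citrulline internal standard, after phenyl glyoxal (final 4 mM) derivatisation of the TCA-quenched reaction. The enzyme (10 nM) sat 30 min with compound (up to 50 μM final) before 500 μM BAEE (as added) started a 90 min, 37 °C reaction. Buffer: HEPES pH 7.5, 50 μM calcium, 5 μM TPEN.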

[1] abbreviates: human PAD4, rapid-fire mass spectrum (RFMS) assay, read-out: hPAD4 RFMS IC50.
[2] abbreviates: hPAD4 RFMS IC50, human PAD4, rapid-fire mass spectrum (RFMS) assay.

human PAD4 (hPAD4), sequence (Q9UM07 whole entry): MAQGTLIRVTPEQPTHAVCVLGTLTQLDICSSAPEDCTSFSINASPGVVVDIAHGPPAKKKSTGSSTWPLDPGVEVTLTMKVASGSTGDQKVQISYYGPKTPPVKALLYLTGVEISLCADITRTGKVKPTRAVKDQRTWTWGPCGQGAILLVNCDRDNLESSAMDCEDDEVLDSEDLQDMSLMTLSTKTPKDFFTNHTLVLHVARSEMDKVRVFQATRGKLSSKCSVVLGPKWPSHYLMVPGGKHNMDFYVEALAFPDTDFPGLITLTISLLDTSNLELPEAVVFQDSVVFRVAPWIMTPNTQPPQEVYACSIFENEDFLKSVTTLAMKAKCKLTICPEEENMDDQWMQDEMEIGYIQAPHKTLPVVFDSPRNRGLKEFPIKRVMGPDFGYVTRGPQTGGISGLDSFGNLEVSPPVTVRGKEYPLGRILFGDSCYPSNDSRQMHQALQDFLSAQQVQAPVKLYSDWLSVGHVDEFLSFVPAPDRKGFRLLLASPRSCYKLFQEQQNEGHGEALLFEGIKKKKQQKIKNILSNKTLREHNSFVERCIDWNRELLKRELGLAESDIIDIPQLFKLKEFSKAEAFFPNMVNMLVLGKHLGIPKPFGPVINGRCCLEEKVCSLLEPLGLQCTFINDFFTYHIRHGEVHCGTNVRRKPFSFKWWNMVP

By pIC50 is commonly meant −log10 of the IC50, conventionally taken in molar units. Turning to `COc1cc(C(=O)N2C[C@H]3CC[C@@H]2[C@@H]3N)cc2nc(-c3cc4cccc(-n5cc(C6CNC6)nn5)c4n3CC3CC3)n(C)c12` [Example 110, (1R,4R,7R)-2-(2-{7-[4-(azetidin-3-yl)-1H-1,2,3-triazol-1-yl]-1-(cyclopropylmethyl)-1H-indol-2-yl}-7-methoxy-1-methyl-1H-1,3-benzodiazole-5-carbonyl)-2-azabicyclo[2.2.1]heptan-7-amine], the pIC50 under setting [1] is 6.86.
With `COc1cc(C(=O)N2C[C@H]3CC[C@@H]2[C@@H]3N)cc2nc(-c3cc4cccc(C5CC(C(N)=O)C5)c4n3CC3CC3)n(C)c12` (single isomer, unassigned) [Example 45], under setting [2], the pIC50 is 7.60.
Molecule `COc1cc(C(=O)N2C[C@@H]3CC[C@@H]2C3N)cc2nc(-c3cc4cccc(-c5ccccc5C#N)c4n3CC3CC3)n(C)c12` (stereo partly drawn) [Example 143, 2-(2-(5-((1R,4S)-7-amino-2-azabicyclo[2.2.1]heptane-2-carbonyl)-7-methoxy-1-methyl-1H-benzo[d]imidazol-2-yl)-1-(cyclopropylmethyl)-1H-indol-7-yl)benzonitrile] showed a negative logarithm of the IC50 (pIC50) under setting [2] of 6.74.
Same read-out and setting: as for `COc1cc(C(=O)N2C[C@H]3CC[C@@H]2[C@@H]3N)cc2nc(-c3cc4cccc(C5CCN(C(=O)C6CC6)CC5)c4n3CC3CC3)n(C)c12` [Example 225, (4-(2-(5-((1R,4R,7R)-7-amino-2-azabicyclo[2.2.1]heptane-2-carbonyl)-7-methoxy-1-methyl-1H-benzo[d]imidazol-2-yl)-1-(cyclopropylmethyl)-1H-indol-7-yl)piperidin-1-yl)(cyclopropyl)metha-none], the figure is 6.95; as for `COc1cc(C(=O)N2CC3CCC2[C@@H]3N)cc2nc(-c3cc4cccc(-c5cnn(C6CCOCC6)c5)c4n3CC3CC3)n(C)c12` (stereo partly drawn) [Example 132, ((7R)-7-amino-2-azabicyclo[2.2.1]heptan-2-yl)(2-(1-(cyclopropylmethyl)-7-(1-(tetrahydro-2H-pyran-4-yl)-1H-pyrazol-4-yl)-1H-indol-2-yl)-7-methoxy-1-methyl-1H-benzo[d]imidazol-5-yl)methanone], 6.75.
The same measure, in the same setting: as for `COc1cc(C(=O)N2C[C@H]3CC[C@@H]2[C@@H]3N)cc2nc(-c3cc4cccc(C5CCN(C(=O)COc6ccccc6)CC5)c4n3CC3CC3)n(C)c12` [Example 235, 1-(4-(2-(5-((1R,4R,7R)-7-amino-2-azabicyclo[2.2.1]heptane-2-carbonyl)-7-methoxy-1-methyl-1H-benzo[d]imidazol-2-yl)-1-(cyclopropylmethyl)-1H-indol-7-yl)piperidin-1-yl)-2-phenoxyethan-1-one], the figure is 7.24; as for `COc1cc(C(=O)N2C[C@H](N)C[C@@H](F)C2)cc2nc(-c3cc4cccc(C5CC(C(=O)N(C)C)C5)c4n3CC3CC3)n(C)c12` (single isomer, unassigned) [Example 117], 6.93; as for `COc1cc(C(=O)N2CC3CCC2[C@@H]3N)cc2nc(-c3cc4cccc(-c5cn(C)nc5-c5ccccc5F)c4n3CC3CC3)n(C)c12` (stereo partly drawn) [Example 135, ((7R)-7-amino-2-azabicyclo[2.2.1]heptan-2-yl)(2-(1-(cyclopropylmethyl)-7-(3-(2-fluorophenyl)-1-methyl-1H-pyrazol-4-yl)-1H-indol-2-yl)-7-methoxy-1-methyl-1H-benzo[d]imidazol-5-yl)methanone], 7.02.
Same read-out and setting: as for `CCNC(=O)N1CCC(c2cccc3cc(-c4nc5cc(C(=O)N6C[C@H]7CC[C@@H]6[C@@H]7N)cc(OC)c5n4C)n(CC4CC4)c23)CC1` [Example 250, 4-(2-(5-((1R,4R,7R)-7-amino-2-azabicyclo[2.2.1]heptane-2-carbonyl)-7-methoxy-1-methyl-1H-benzo[d]imidazol-2-yl)-1-(cyclopropylmethyl)-1H-indol-7-yl)-N-ethylpiperidine-1-carboxamide], the figure is 8.10.
`CNC(=O)C1CC(c2cccc3cc(-c4nc5cc(C(=O)N6C[C@H](N)C[C@@H](F)C6)cc(OC)c5n4C)n(CC4CC4)c23)C1` (single isomer, unassigned) [Example 111]: the pIC50 under setting [1] is 7.12.
In the case of `CCCc1cccc2cc(-c3nc4cc(C(=O)N5C[C@H]6CC[C@@H]5[C@@H]6N)cc(OC)c4n3C)n(CC3CC3)c12` [Example 5, (1R,4R,7R)-2-{2-[1-(cyclopropylmethyl)-7-propyl-1H-indol-2-yl]-7-methoxy-1-methyl-1H-1,3-benzodiazole-5-carbonyl}-2-azabicyclo[2.2.1]heptan-7-amine], under setting [2], the pIC50 is 6.73.
As to `COc1cc(C(=O)N2C[C@H]3CC[C@@H]2[C@@H]3N)cc2nc(-c3cc4cccc(C5CC6(C5)CN(C(C)=O)C6)c4n3CC3CC3)n(C)c12` [Example 62, 1-[6-(2-{5-[(1R,4R,7R)-7-amino-2-azabicyclo[2.2.1]heptane-2-carbonyl]-7-methoxy-1-methyl-1H-1,3-benzodiazol-2-yl}-1-(cyclopropylmethyl)-1H-indol-7-yl)-2-azaspiro[3.3]heptan-2-yl]ethan-1-one], the pIC50 under setting [1] was 6.96.
Still for that read-out and setting: as for `COc1cc(C(=O)N2C[C@H]3CC[C@@H]2[C@@H]3N)cc2nc(-c3cc4cccc(C5CC(NC(C)=O)C5)c4n3CC3CC3)n(C)c12` (single isomer, unassigned) [Example 58], the figure is 7.12.
Under setting [2], `COc1cc(C(=O)N2C[C@H]3CC[C@@H]2[C@@H]3N)cc2nc(-c3cc4cccc(C5(O)CCC5)c4n3CC3CC3)n(C)c12` [Example 218, ((1R,4R,7R)-7-amino-2-azabicyclo[2.2.1]heptan-2-yl)(2-(1-(cyclopropylmethyl)-7-(1-hydroxycyclobutyl)-1H-indol-2-yl)-7-methoxy-1-methyl-1H-benzo[d]imidazol-5-yl)methanone] had a negative logarithm of the IC50 (pIC50) of 7.24.
`COc1cc(C(=O)N2C[C@H]3CC[C@@H]2[C@@H]3N)cc2nc(-c3cc4cccc(-c5cccs5)c4n3CC3CC3)n(C)c12` [Example 131, ((1R,4R,7R)-7-amino-2-azabicyclo[2.2.1]heptan-2-yl)(2-(1-(cyclopropylmethyl)-7-(thiophen-2-yl)-1H-indol-2-yl)-7-methoxy-1-methyl-1H-benzo[d]imidazol-5-yl)methanone] showed a negative logarithm of the IC50 (pIC50) under setting [2] of 6.81.
